Read-outs that look alike come from different tables or passages of the source.

This is an account of results in patent US6147230A, “Amino acid dysiherbaine” (priority 1996, dated 2000).

One data set deals with AMPA receptors. Description: Radiobinding assay in rat brain synaptic membrane samples, [^3 H] AMPA (AMPA receptors). The conditions noted are these: [^3 H] AMPA 5 nM, 4° C., 1 hour; for IC50: 100 mM KSCN/50 mM Tris-acetate pH 7.4, read-out: IC50, inhibition of [^3 H] AMPA binding. Type of data set: binding. As for the experimental part: (§1) Radiobinding assay in rat brain synaptic membrane samples
(§2) Rat brain synaptic membrane samples were prepared according to the described protocols (London, E. D., Coyle, J. T., Mol. Pharmacol. 1979, 15, 492; Murphy, D. E., Snowhill, E. W.; Williams, M., Neurochem. Res. 1987, 12, 775 and Murphy, D. E., Hutchison, A. J., Hurt, S. D., Williams, M., Sills, M. A., Br. J. Pharmacol. 1988, 95, 932). Radioligands and incubation conditions used in the binding assay as well as experimental results are as follows:
[Conditions]: ligand [^3 H] AMPA 5 nM; incubation medium 100 mM KSCN/50 mM Tris-acetate buffer (pH 7.4); incubation condition 4° C., 1 hour.

In data set [1] the test system is Glutamate receptors expressed in primary cultures of rat cerebral cortex neurocytes. The data set can be described thus: Electrophysiological evaluation (patch clamp whole cell) in primary cultures of rat cerebral cortex neurocytes. The format is cell-based. The source says:
Electrophysiological evaluation in primary cultures of rat cerebral cortex neurocytes
(In general: The patch-clamp technique gives a direct electrical read-out from membranes.)

The next data set deals with DDY mouse. The data set can be described thus: Intraperitoneal administration to mice. Type of data set: in vivo. As for the experimental part:
Intraperitoneal administration to mice
Compound (1) was diluted with purified water and intraperitoneally injected into a DDY mouse (male, 15 g).

The target of a further data set is KA receptors. Description: Radiobinding assay in rat brain synaptic membrane samples, [^3 H] kainic acid (KA receptors). The format is binding. The conditions noted are these: [^3 H] kainic acid 1 nM, 4° C., 1 hour; for IC50: 100 mM Tris-acetate pH 7.1, read-out: IC50, inhibition of [^3 H] kainic acid binding. Here is the method:
as §1, §2
[Conditions]: ligand [^3 H] kainic acid 1 nM; incubation medium 100 mM Tris-acetate buffer (pH 7.1); incubation condition 4° C., 1 hour.

The subject of the next data set is NMDA receptors. The data set can be described thus: Radiobinding assay in rat brain synaptic membrane samples, [^3 H] CGS-19755 (NMDA receptors). The format is binding. The settings on record: [^3 H] CGS-19755 10 nM; 50 mM Tris-acetate pH 8.0; 4° C., 1 hour. Here is the method: as §1, §2
[Conditions]: ligand [^3 H] CGS-19755 10 nM; incubation medium 50 mM Tris-acetate buffer (pH 8.0); incubation condition 4° C., 1 hour.

In the next data set the test system is rats. The conditions noted are these: prior art statement; cited from earlier work.
The mark [2] stands for this setting: inward current, patch clamp whole cell; cultures grown 10-21 days.
[3] abbreviates: read-out: EC50, inward current; patch clamp whole cell; cultures grown 10-21 days.

For the molecule `Cc1onc(O)c1CC(N)C(=O)O` (stereo not drawn) [AMPA, α-amino-3-hydroxy-5-methyl-4-isoxazolepropionic acid], at AMPA receptors, the IC50 was 5.6 ± 1.1 nM. In addition, the Max response in data set [1] (setting [2]) worked out at 1.26 nA. Besides, the EC50 in data set [1] (patch clamp whole cell; cultures grown 10-21 days; read-out: EC50, inward current) turned out to be 4000 nM.

Turning to `N#Cc1cc2[nH]c(=O)c(=O)[nH]c2cc1[N+](=O)[O-]` [CNQX, 6-cyano-7-nitroquinoxaline-2,3-dione], the “inhibition of the current induced by Compound (1)” value in data set [1] (current induced by Compound (1)) is given as “significantly inhibited”.

`CNC1C(O)COC2CC(CC(N)C(=O)O)(C(=O)O)OC21` (centres unmarked) [Compound (1), dysiherbaine]: in the data set with DDY mouse (20 μg/kg i.p., male DDY mouse), the “behavioural effect, low dose” value is on record as “repeat scratching on the flank” and the “duration of repeated scratching on the flank” value was 10 to 20 min. Besides, in the data set with DDY mouse (1.3 mg/kg i.p., male DDY mouse), the “behavioural effect, moderate dose” value was “epileptoid spasm” and the “recovery, moderate dose” value is “recovered from this condition on the following day”. Moreover, in the data set on DDY mouse (6.5 mg/kg i.p., male DDY mouse), the “effect, higher dose” value is on record as “died in about 40 minutes after violent attack” and the time to death result is on record as “about 40 minutes”. Moreover, the “in vivo activity compared with domoic acid” value in the data set on DDY mouse (compared with known KA agonist domoic acid) was “stronger in vivo activity than a known KA agonist domoic acid”. The IC50 on KA receptors worked out at 59 ± 7.8 nM. The “inhibition of [^3 H] kainic acid binding to KA receptors” value with KA receptors (pH 7.1) was “concentration-dependently inhibited”. Moreover, at AMPA receptors, the IC50 amounted to 224 ± 22 nM. The “inhibition of [^3 H] AMPA binding to AMPA receptors” value with AMPA receptors (pH 7.4) was “concentration-dependently inhibited”. In the data set on NMDA receptors, the “inhibition of [^3 H] CGS-19755 binding to NMDA receptors” value was “did not inhibit”. Besides, the “inward current compared with kainic acid” value in data set [1] (compared with kainic acid) is listed as “stronger inward current than kainic acid”. In data set [1] (setting [2]), this molecule registered a Max response of 1.40 nA. For the same molecule, the “induction of inward current” value in data set [1] (patch clamp whole cell) is on record as “concentration-dependently induced a strong inward current”. For the same molecule, in data set [1] (setting [3]), the EC50 came to 4000 nM.

Regarding `N[C@@H](CCC(=O)O)C(=O)O` [Glutamic acid, L-glutamic acid, reference compound], the IC50 at KA receptors is 110 ± 18 nM; on AMPA receptors, 124 ± 41 nM.

Take `C=C(C)[C@H]1CN[C@H](C(=O)O)[C@H]1CC(=O)O` [Kainic acid, kainic acid]: the IC50 at KA receptors came to 4.3 ± 0.5 nM. For the same molecule, in data set [1] (setting [2]), the Max response was 1.31 nA. The EC50 in data set [1] (setting [3]) stood at 40000 nM. Also, the “lesions and neuronal degeneration in rats” value with rats was “induces epileptoid lesions and neuronal degeneration in rats”.

What is called IC50 is the concentration needed to halve the response being measured. For orientation: EC50 means the concentration needed to bring the measured effect to its halfway point.
